Results: BindingDB's records for doi:10.1111/cbdd.12481 (University of Kwazulu-Nata, 2015)

How the values were obtained:
[1] = target: 72 kDa type IV collagenase (Homo sapiens, UniProt P08253); assay: MMP2 Inhibition Assay; details: pH 8.5; 25 °C
Method: The synthesized compounds were assayed for the inhibitory activities against MMP-2 in 96-well microtiter plates using succinylated gelatin as the substrate. The compound and enzyme were dissolved in sodium borate buffer (pH 8.5, 50 mM) and incubated at 37 °C for 30 min. The substrate was added and incubated at 37 °C for another 60 min. The 100% and blank groups were also carried out, in which the 100% group contained not compound and the blank group contained […]. Then, 0.03% picrylsulfonic acid solution was added and incubated at room temperature for additional 20 min. The resulting solutions were measured under 450 nm.

[2] = target: Macrophage metalloelastase (Homo sapiens, UniProt P39900); assay: MMP12 Inhibition Assay; details: pH 8; 25 °C
Method: The synthesized compounds were assayed for the inhibitory activities against MMP-12 in 96-well microtiter plates using thiopeptolide as the substrate. MMP-12 was diluted in Assay buffer (50 mM Tris pH7.5, 0.05% Brij-35, 10 mM CaCl2, 1 mM DTNB) to a concentration of 0.007 U/µL. The MMP-12 solution (44 µL) was premixed with 1 µL of inhibitors dissolved in DMSO in a 96-well plate, and the mixture was incubated for 20 min at room temperature. Then, 5 µL of 1 mM MMP chromogenic substrate (thiopeptolide) was added to the mixture, and the reaction mixture was incubated for 30-80 min at 37 °C. Reaction was terminated by adding 7 µL of 0.2 M EDTA (pH 8.0). The intensity of the color developed by the digested substrate was measuredat 405 nm.

72 kDa type IV collagenase, sequence (P08253 whole entry): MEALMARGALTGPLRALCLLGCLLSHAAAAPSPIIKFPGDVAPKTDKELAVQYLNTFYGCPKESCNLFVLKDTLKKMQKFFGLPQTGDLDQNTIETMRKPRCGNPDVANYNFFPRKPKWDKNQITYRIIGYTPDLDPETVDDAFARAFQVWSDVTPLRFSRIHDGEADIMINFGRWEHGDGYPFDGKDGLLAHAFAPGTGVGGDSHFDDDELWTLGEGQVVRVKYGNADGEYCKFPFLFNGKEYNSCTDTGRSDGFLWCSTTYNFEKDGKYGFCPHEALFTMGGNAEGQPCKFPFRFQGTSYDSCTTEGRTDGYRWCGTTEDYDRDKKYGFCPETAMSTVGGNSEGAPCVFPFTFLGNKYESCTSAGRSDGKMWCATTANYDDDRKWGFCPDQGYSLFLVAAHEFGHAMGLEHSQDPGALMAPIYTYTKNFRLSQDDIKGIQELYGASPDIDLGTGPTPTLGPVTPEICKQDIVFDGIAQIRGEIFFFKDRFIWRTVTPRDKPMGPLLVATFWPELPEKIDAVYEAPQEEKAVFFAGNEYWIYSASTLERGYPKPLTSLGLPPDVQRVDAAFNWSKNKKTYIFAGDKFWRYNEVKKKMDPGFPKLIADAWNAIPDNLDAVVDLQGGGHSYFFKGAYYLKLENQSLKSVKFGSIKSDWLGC
Macrophage metalloelastase, sequence (P39900 whole entry): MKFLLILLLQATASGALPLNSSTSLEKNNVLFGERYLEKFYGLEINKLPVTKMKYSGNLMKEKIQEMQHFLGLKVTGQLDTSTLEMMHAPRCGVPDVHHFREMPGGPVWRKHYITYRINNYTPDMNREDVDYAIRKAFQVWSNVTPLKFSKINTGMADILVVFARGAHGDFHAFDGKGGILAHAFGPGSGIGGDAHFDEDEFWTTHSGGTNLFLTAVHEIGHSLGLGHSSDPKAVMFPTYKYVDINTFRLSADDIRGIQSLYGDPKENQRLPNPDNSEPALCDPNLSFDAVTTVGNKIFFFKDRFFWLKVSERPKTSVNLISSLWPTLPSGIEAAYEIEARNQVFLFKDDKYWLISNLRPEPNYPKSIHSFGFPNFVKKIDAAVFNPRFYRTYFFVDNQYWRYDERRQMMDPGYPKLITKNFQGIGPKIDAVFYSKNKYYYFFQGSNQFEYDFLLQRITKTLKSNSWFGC

Row | SMILES | IC50 [1] [µM] | IC50 [2] [µM]
1 | Cn1c(C(=O)NNC(=O)Nc2ccco2)cc(Br)c1Br [2-(1-Methyl-4,5-dibromo-1H-pyrrole-2-carbonyl-N-(furan-2-yl))hydrazine carboxamide (4s)] | 60.3 | 84.2
2 | O=C(NNC(=S)Nc1ccc(Cl)cc1)c1cc(Br)c(Br)[nH]1 [2-(4,5-Dibromo-1H-pyrrole-2-carbonyl)-N-(4-chlorophenyl)hydrazine carbothioamide (5e)] | 1.8 | 29
3 | Cn1c(C(=O)NNC(=S)Nc2ccccc2F)cc(Br)c1Br [2-(1-Methyl-4,5-dibromo-1H-pyrrole-2-carbonyl)-N-(2-fluorophenyl)hydrazine carbothioamide (5n)] | 8 | 43.1

Continued by falling IC50 [1], values first:

Row | IC50 [1] [µM] | IC50 [2] [µM] | SMILES
4 | 19.2 | 23.8 | COc1cc(NC(=S)NNC(=O)c2cc(Br)c(Br)n2C)cc(OC)c1OC [2-(1-Methyl-4,5-dibromo-1H-pyrrole-2-carbonyl)-N-(3,4,5-trimethoxyphenyl) hydrazine carbothioamide (5t)]
5 | 13.7 | 42.1 | O=C(NNC(=S)Nc1ccc([N+](=O)[O-])cc1)c1cc(Br)c(Br)[nH]1 [2-(4,5-Dibromo-1H-pyrrole-2-carbonyl)-N-(4-nitrophenyl)hydrazine carbothioamide (5c)]
